# From ChEMBL document CHEMBL1141985, “Carbonic anhydrase inhibitors. Inhibition of the human cytosolic isozyme VII with aromatic and heterocyclic sulfonamides” (Bioorg Med Chem Lett, 2005)
# pKi: −log10 of the molar value.
# Target: Carbonic anhydrase 7 (Homo sapiens, UniProt P43166)
# Sequence (P43166 whole entry): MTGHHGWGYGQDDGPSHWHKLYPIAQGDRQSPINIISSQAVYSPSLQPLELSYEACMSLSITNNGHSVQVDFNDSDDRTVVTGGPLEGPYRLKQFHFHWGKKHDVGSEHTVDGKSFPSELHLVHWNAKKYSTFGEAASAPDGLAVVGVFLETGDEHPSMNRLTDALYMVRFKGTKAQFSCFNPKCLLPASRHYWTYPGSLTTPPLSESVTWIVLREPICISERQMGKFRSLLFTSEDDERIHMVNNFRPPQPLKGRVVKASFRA
# Description: Ki value against human carbonic anhydrase VII
row,pKi,SMILES
1,8.19,Nc1ccc(S(=O)(=O)NCCc2ccc(S(N)(=O)=O)cc2)cc1
2,7.12,Nc1ccc(S(N)(=O)=O)cc1F
3,8.28,Nc1nnc(S(N)(=O)=O)s1
4,8.25,Nc1ccc(S(=O)(=O)NCc2ccc(S(N)(=O)=O)cc2)cc1
5,7.28,NS(=O)(=O)c1ccc(C(=O)O)cc1 [CARZENIDE]
6,7.17,NNc1ccccc1S(N)(=O)=O
7,8.37,Cn1nc(S(N)(=O)=O)sc1=N
8,7.22,NS(=O)(=O)c1ccc(CO)cc1
9,8.17,Nc1nccc(Nc2ccc(S(N)(=O)=O)cc2)n1
10,8.15,Nc1ccc(S(=O)(=O)NC2NN=C(S(N)(=O)=O)S2)cc1 (stereo not given)
11,7.21,Nc1ccc(S(N)(=O)=O)cc1Br
12,6.92,Nc1ccc(S(N)(=O)=O)cc1Cl
13,7.12,NCc1ccc(S(N)(=O)=O)cc1 [MAFENIDE]
14,6.82,Nc1ccc(S(N)(=O)=O)cc1I
15,7.06,Cc1ccc(S(N)(=O)=O)cc1 [P-TOLUENESULFONAMIDE]
16,7.35,Nc1ccccc1S(N)(=O)=O
17,7.18,NS(=O)(=O)c1ccc(CCO)cc1
18,8.40,NS(=O)(=O)c1nc2ccccc2s1

row,SMILES,pKi
1,NS(=O)(=O)c1nnc(-c2ccccc2Cl)s1,8.27
2,NNc1ccc(S(N)(=O)=O)cc1,7.05
3,Nc1ccc(S(N)(=O)=O)cc1 [SULFANILAMIDE],7.15

# Target: Carbonic anhydrase 1 (Homo sapiens, UniProt P00915)
# Sequence (P00915 whole entry): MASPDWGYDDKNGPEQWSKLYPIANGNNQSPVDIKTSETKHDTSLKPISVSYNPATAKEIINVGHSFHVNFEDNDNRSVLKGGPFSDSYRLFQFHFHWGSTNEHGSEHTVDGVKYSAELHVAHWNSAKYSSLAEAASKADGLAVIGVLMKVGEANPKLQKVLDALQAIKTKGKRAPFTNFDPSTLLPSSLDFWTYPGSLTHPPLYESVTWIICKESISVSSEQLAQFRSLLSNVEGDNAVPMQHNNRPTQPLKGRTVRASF
# Description: Ki value against human carbonic anhydrase I
row,SMILES,pKi
1,NS(=O)(=O)c1nnc(-c2ccccc2Cl)s1,6.16
2,NNc1ccc(S(N)(=O)=O)cc1,4.55

# Target: Carbonic anhydrase 13 (Mus musculus, UniProt Q9D6N1)
# Sequence (Q9D6N1 whole entry): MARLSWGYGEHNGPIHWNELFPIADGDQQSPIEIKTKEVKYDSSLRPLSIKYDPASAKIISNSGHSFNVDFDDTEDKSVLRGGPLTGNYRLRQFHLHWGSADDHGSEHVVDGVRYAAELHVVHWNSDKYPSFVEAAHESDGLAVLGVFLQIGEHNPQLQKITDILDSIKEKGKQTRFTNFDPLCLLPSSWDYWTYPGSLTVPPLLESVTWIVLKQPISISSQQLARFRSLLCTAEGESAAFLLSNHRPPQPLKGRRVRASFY
# Description: Ki value against murine carbonic anhydrase XIII
row,pKi,SMILES
1,8.72,Nc1ccc(S(=O)(=O)NCCc2ccc(S(N)(=O)=O)cc2)cc1
2,8.70,Nc1ccc(S(=O)(=O)NCc2ccc(S(N)(=O)=O)cc2)cc1
